Measurements: paper PMC9687610, “Adenosine-Mimicking Derivatives of 3-Aminopyrazine-2-Carboxamide: Towards Inhibitors of Prolyl-tRNA Synthetase with Antimycobacterial Activity” (Biomolecules, 2022)

What was measured:
[1] = tested on: Staphylococcus aureus subsp. aureus CCM 4223 (ATCC 29213); experiment: Antibacterial microdilution broth (EUCAST), SA; type: cell-based; settings: read after 24 h; read-out: SA MIC
[2] = tested on: Lichtheimia corymbifera CCM 8077; experiment: Antifungal microdilution broth (EUCAST), LC; type: cell-based; settings: read after 24 h; read-out: LC MIC
[3] = tested on: Pseudomonas aeruginosa CCM 3955 (ATCC 27853); experiment: Antibacterial microdilution broth (EUCAST), PA; type: cell-based; settings: read after 24 h
[4] = tested on: Klebsiella pneumoniae CCM 4415 (ATCC 10031); settings: 24 h
[5] = tested on: M. aurum DSM 43999 (ATCC 23366); experiment: Microplate Alamar Blue Assay (MABA), M. aurum; type: cell-based; settings: MABA, resazurin after 72 h
[6] = tested on: Staphylococcus aureus subsp. aureus methicillin-resistant (MRSA) CCM 4750 (ATCC 43300); experiment: Antibacterial microdilution broth (EUCAST), MRSA; type: cell-based; settings: read after 24 h; read-out: MRSA MIC
[7] = tested on: Trichophyton interdigitale CCM 8377 (ATCC 9533); experiment: Antifungal microdilution broth (EUCAST), TI; type: cell-based; settings: read after 72 h
[8] = tested on: Aspergillus fumigatus ATCC 204305; experiment: Antifungal microdilution broth (EUCAST), AF; type: cell-based; settings: read after 24 h; read-out: AF MIC
[9] = tested on: Enterococcus faecalis CCM 4224 (ATCC 29212); experiment: Antibacterial microdilution broth (EUCAST), EF; type: cell-based; settings: read after 24 h; read-out: EF MIC
[10] = tested on: Candida krusei CCM 8271 (ATCC 6258); experiment: Antifungal microdilution broth (EUCAST), CK; type: cell-based; settings: read after 24 h; read-out: CK MIC
[11] = tested on: Acinetobacter baumannii DSM 30007 (ATCC 19606); experiment: Antibacterial microdilution broth (EUCAST), ACI; type: cell-based; settings: read after 24 h; read-out: ACI MIC
[12] = tested on: Escherichia coli CCM 3954 (ATCC 25922); experiment: Antibacterial microdilution broth (EUCAST), EC; type: cell-based; settings: read after 24 h; read-out: EC MIC
[13] = tested on: Candida parapsilosis CCM 8260 (ATCC 22019); experiment: Antifungal microdilution broth (EUCAST), CP; type: cell-based; settings: read after 24 h; read-out: CP MIC
[14] = tested on: Mycobacterium tuberculosis H37Ra ITM-M006710 (ATCC 9431); experiment: Microplate Alamar Blue Assay (MABA), Mtb H37Ra; type: cell-based; settings: MABA, Middlebrook 7H9 broth pH 6.6, resazurin after 120 h
[15] = tested on: Candida albicans CCM 8320 (ATCC 24433); experiment: Antifungal microdilution broth (EUCAST), CA; type: cell-based; settings: read after 24 h; read-out: CA MIC
[16] = tested on: Aspergillus flavus CCM 8363; experiment: Antifungal microdilution broth (EUCAST), AFla; type: cell-based; settings: read after 24 h; read-out: AFla MIC
[17] = tested on: Candida tropicalis CCM 8264 (ATCC 750); experiment: Antifungal microdilution broth (EUCAST), CT; type: cell-based; settings: read after 24 h; read-out: CT MIC
[18] = tested on: Mycobacterium smegmatis DSM 43465 (ATCC 607); experiment: Microplate Alamar Blue Assay (MABA), M. smegmatis; type: cell-based; settings: MABA, resazurin after 48 h

COC(=O)c1nccnc1NC(=O)c1ccccc1 [Compound 1e]
125 µg/mL: M. smegmatis MIC [18]
> 500 µM: MIC [1] | MIC [2] | PA MIC [3] | KP MIC [4] | MIC [6] | TI MIC [7] | MIC [8] | MIC [9] | MIC [10] | MIC [11] | MIC [12] | MIC [13] | MIC [15] | MIC [16] | MIC [17]
≥ 500 µg/mL: Mtb H37Ra MIC [14]
250 µg/mL: M. aurum MIC [5]
